Data as given in US8216822B2, “Bacterial host cell for the direct expression of peptides” (Unigene Laboratories, Inc., priority 2004, dated 2012).

B1: α2-macroglobulin: protease inhibitor (protein, UniProt P01023 24-1474, looked up)
Alpha-2-macroglobulin: SVSGKPQYMVLVPSLLHTETTEKGCVLLSYLNETVTVSASLESVRGNRSLFTDLEAENDVLHCVAFAVPKSSSNEEVMFLTVQVKGPTQEFKKRTTVMVKNEDSLVFVQTDKSIYKPGQTVKFRVVSMDENFHPLNELIPLVYIQDPKGNRIAQWQSFQLEGGLKQFSFPLSSEPFQGSYKVVVQKKSGGRTEHPFTVEEFVLPKFEVQVTVPKIITILEEEMNVSVCGLYTYGKPVPGHVTVSICRKYSDASDCHGEDSQAFCEKFSGQLNSHGCFYQQVKTKVFQLKRKEYEMKLHTEAQIQEEGTVVELTGRQSSEITRTITKLSFVKVDSHFRQGIPFFGQVRLVDGKGVPIPNKVIFIRGNEANYYSNATTDEHGLVQFSINTTNVMGTSLTVRVNYKDRSPCYGYQWVSEEHEEAHHTAYLVFSPSKSFVHLEPMSHELPCGHTQTVQAHYILNGGTLLGLKKLSFYYLIMAKGGIVRTGTHGLLVKQEDMKGHFSISIPVKSDIAPVARLLIYAVLPTGDVIGDSAKYDVENCLANKVDLSFSPSQSLPASHAHLRVTAAPQSVCALRAVDQSVLLMKPDAELSASSVYNLLPEKDLTGFPGPLNDQDNEDCINRHNVYINGITYTPVSSTNEKDMYSFLEDMGLKAFTNSKIRKPKMCPQLQQYEMHGPEGLRVGFYESDVMGRGHARLVHVEEPHTETVRKYFPETWIWDLVVVNSAGVAEVGVTVPDTITEWKAGAFCLSEDAGLGISSTASLRAFQPFFVELTMPYSVIRGEAFTLKATVLNYLPKCIRVSVQLEASPAFLAVPVEKEQAPHCICANGRQTVSWAVTPKSLGNVNFTVSAEALESQELCGTEVPSVPEHGRKDTVIKPLLVEPEGLEKETTFNSLLCPSGGEVSEELSLKLPPNVVEESARASVSVLGDILGSAMQNTQNLLQMPYGCGEQNMVLFAPNIYVLDYLNETQQLTPEIKSKAIGYLNTGYQRQLNYKHYDGSYSTFGERYGRNQGNTWLTAFVLKTFAQARAYIFIDEAHITQALIWLSQRQKDNGCFRSSGSLLNNAIKGGVEDEVTLSAYITIALLEIPLTVTHPVVRNALFCLESAWKTAQEGDHGSHVYTKALLAYAFALAGNQDKRKEVLKSLNEEAVKKDNSVHWERPQKPKAPVGHFYEPQAPSAEVEMTSYVLLAYLTAQPAPTSEDLTSATNIVKWITKQQNAQGGFSSTQDTVVALHALSKYGAATFTRTGKAAQVTIQSSGTFSSKFQVDNNNRLLLQQVSLPELPGEYSMKVTGEGCVYLQTSLKYNILPEKEEFPFALGVQTLPQTCDEPKAHTSFQISLSVSYTGSRSASNMAIVDVKMVSGFIPLKPTVKMLERSNHVSRTEVSSNHVLIYLDKVSNQTLSLFFTVLQDVPVRDLKPAIVKVYDYYETDEFAIAEYNAPCSKDLGNA

Columns and labels:
[1] = system: proteolytic degradation of sCTgly in conditioned fermentation medium; assay: Protease inhibitors tested for ability to reduce proteolytic degradation of sCTgly in conditioned medium; type: biochemical, E. coli; conditions: 30° C.
Protocol: Conditioned medium samples from both UGL165 (E. coli BLR transformed with pSCT 029) and UGL703 (E. coli BLR transformed with pSCT 038) Direct Expression fermentations were tested for loss of sCTgly following removal of cells and incubation of the medium spiked with sCTgly at 30° C. The concentration of sCTgly in conditioned fermentation medium was measured by CEX HPLC.

[2] = biological target: T1, E. coli Protease III (zinc metalloprotease) in fermentation medium (Escherichia coli, UniProt P05458); assay: Divalent cation specificity of sCTgly degradation in fermentation medium (EDTA, MgCl2, ZnCl2); type: biochemical; conditions: 15 mM added to EDTA (50 mM) pre-treated medium, 30° C., 4 hrs
T1 construct: E. coli Protease III is a periplasmic/extracellular zinc metalloprotease; endogenous in cells; host or cells: E. coli BLR (UGL703 / UGL165), cell-free conditioned fermentation medium
T1 sequence (P05458 24-962): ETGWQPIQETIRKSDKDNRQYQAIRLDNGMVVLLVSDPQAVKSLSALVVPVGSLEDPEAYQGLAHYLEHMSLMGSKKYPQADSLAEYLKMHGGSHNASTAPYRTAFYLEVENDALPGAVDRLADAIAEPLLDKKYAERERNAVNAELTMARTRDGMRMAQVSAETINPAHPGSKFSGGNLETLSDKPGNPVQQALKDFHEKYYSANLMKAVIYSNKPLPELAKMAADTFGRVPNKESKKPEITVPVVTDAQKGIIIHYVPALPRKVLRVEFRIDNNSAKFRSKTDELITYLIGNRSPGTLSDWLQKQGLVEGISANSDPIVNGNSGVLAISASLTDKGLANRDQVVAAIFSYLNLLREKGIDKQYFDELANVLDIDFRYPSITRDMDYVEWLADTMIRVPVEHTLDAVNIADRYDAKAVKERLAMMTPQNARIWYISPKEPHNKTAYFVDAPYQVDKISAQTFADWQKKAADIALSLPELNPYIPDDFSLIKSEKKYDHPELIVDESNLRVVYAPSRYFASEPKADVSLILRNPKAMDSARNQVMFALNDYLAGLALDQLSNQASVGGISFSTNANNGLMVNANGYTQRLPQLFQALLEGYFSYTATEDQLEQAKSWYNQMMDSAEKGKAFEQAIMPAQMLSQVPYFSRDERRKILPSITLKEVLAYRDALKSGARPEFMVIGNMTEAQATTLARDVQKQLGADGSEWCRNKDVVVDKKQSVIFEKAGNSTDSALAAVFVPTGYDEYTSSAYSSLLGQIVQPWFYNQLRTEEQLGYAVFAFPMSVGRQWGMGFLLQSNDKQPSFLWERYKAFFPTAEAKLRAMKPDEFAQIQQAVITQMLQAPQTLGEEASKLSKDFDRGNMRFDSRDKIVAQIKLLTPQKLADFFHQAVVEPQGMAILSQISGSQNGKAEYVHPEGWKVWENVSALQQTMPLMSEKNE

Molecule	ability to reduce or eliminate proteolytic degradation of sCTgly [1]	reactivation of proteolytic activity by divalent cation [2]
CC(C)C[C@H](NC(=O)[C@@H](O)[C@H](N)Cc1ccccc1)C(=O)O [Bestatin]	Only EDTA was able to reduce the proteolytic degradation of sCTgly	
[Cl-].[Cl-].[Mg+2] [MgCl2]		magnesium was not
[Cl-].[Cl-].[Zn+2] [ZnCl2]		zinc was effective
B1	Only EDTA was able to reduce the proteolytic degradation of sCTgly	
